Source: paper PMC5908784, “Extracellular loops 2 and 3 of the calcitonin receptor selectively modify agonist binding and efficacy” (Biochemical Pharmacology, 2018)
Where a chain is given by its changes, count along the chain named. Where a SMILES comes first, the peptide text is derived from it. Bridges are numbered along the chain shown (N, C = ends).

Assays:
Test in all cases: ERK1/2 phosphorylation
Type in all cases: cell-based
hCTR T280A = target: T1, hCTR T280A (Homo sapiens, UniProt P30988, T280A); conditions: CV1-FlpIn cells, mean ± S.E.M.; for Emax: pERK maximal response; for EC50: pERK, three-parameter logistic fit
T1 construct: expressed in transfected cells
T1 sequence (P30988 25-474 T280A): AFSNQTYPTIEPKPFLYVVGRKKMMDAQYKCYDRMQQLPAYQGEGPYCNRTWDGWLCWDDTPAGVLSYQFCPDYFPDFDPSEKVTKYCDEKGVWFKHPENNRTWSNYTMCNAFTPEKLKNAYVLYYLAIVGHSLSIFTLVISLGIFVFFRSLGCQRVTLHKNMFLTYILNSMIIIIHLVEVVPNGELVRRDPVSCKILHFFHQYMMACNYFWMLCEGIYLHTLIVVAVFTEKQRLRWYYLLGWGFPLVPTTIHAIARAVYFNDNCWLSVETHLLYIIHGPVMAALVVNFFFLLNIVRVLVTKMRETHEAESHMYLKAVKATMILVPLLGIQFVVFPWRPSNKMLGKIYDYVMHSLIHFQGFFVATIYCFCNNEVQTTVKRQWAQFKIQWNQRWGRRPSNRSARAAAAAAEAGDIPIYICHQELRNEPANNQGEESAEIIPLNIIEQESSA
Outline: (§1)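 Cells were seeded at 2.5 × 10^4 cells/well and cultured overnight before stimulation. ERK1/2 phosphorylation was normalized to the maximal response to 10% FBS measured at 6 min. EC50 and Emax came from a 3-parameter logistic fit of concentration-response curves.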

hCTR F356A = target: T2, hCTR F356A (Homo sapiens, UniProt P30988, F356A); conditions: CV1-FlpIn cells, mean ± S.E.M.; for Emax: pERK maximal response; for EC50: pERK, three-parameter logistic fit
T2 construct: c-Myc (N); expressed in transfected cells
T2 sequence (P30988 25-474 F356A): T1 sequence (P30988 25-474 T280A) with A256T, F332A
Outline: as §1

hCTR Y284A = target: T3, hCTR Y284A (Homo sapiens, UniProt P30988, Y284A); conditions: CV1-FlpIn cells, mean ± S.E.M.; for Emax: pERK maximal response; for EC50: pERK, three-parameter logistic fit
T3 construct: expressed in transfected cells
T3 sequence (P30988 25-474 Y284A): T1 sequence (P30988 25-474 T280A) with A256T, Y260A
Outline: as §1

hCTR V293A = target: T4, hCTR V293A (Homo sapiens, UniProt P30988, V293A); conditions: CV1-FlpIn cells, mean ± S.E.M.; for Emax: pERK maximal response; for EC50: pERK, three-parameter logistic fit
T4 construct: c-Myc (N); expressed in transfected cells
T4 sequence (P30988 25-474 V293A): T1 sequence (P30988 25-474 T280A) with A256T, V269A
Outline: as §1

hCTR D373A = target: T5, hCTR D373A (Homo sapiens, UniProt P30988, D373A); conditions: CV1-FlpIn cells, mean ± S.E.M.; for Emax: pERK maximal response
T5 construct: c-Myc (N); expressed in transfected cells
T5 sequence (P30988 25-474 D373A): T1 sequence (P30988 25-474 T280A) with A256T, D349A
Outline: as §1

SMILES	Emax (hCTR T280A)	EC50 (hCTR T280A)	Emax (hCTR F356A)	EC50 (hCTR F356A)	Emax (hCTR Y284A)	EC50 (hCTR Y284A)	Emax (hCTR V293A)	EC50 (hCTR V293A)	Emax (hCTR D373A)	EC50 (hCTR D373A; pERK, three-parameter logistic fit)
CC(C)C[C@H](NC(=O)CNC(=O)[C@H](C)NC(=O)[C@H](CC(C)C)NC(=O)[C@H](CCCNC(=N)N)NC(=O)[C@H](Cc1cnc[nH]1)NC(=O)[C@@H](NC(=O)[C@@H](NC(=O)[C@@H]1CSSC[C@H](NC(=O)[C@H](C)N)C(=O)N[C@@H](CC(=O)O)C(=O)N[C@@H]([C@@H](C)O)C(=O)N[C@@H](C)C(=O)N[C@@H]([C@@H](C)O)C(=O)N1)C(C)C)[C@@H](C)O)C(=O)N[C@@H](CC(C)C)C(=O)N[C@@H](CO)C(=O)N[C@@H](CCCNC(=N)N)C(=O)N[C@@H](CO)C(=O)NCC(=O)NCC(=O)N[C@H](C(=O)N[C@H](C(=O)N[C@@H](CCCCN)C(=O)N[C@@H](CC(N)=O)C(=O)N[C@@H](CC(N)=O)C(=O)N[C@@H](Cc1ccccc1)C(=O)N[C@H](C(=O)N1CCC[C@H]1C(=O)N[C@H](C(=O)N[C@@H](CC(N)=O)C(=O)N[C@H](C(=O)NCC(=O)N[C@@H](CO)C(=O)N[C@@H](CCCCN)C(=O)N[C@@H](C)C(=O)N[C@@H](Cc1ccccc1)C(N)=O)C(C)C)[C@@H](C)O)C(C)C)C(C)C)C(C)C [hαCGRP]	106 ± 12%	53.7 nM	68 ± 11%	182 nM	79 ± 15%	112 nM	149 ± 22%	52.5 nM	–	–
CC[C@H](C)[C@H](NC(=O)[C@H](C)NC(=O)[C@@H](NC(=O)[C@H](CCC(N)=O)NC(=O)[C@@H]1CCCN1C(=O)[C@H](Cc1ccccc1)NC(=O)[C@@H](NC(=O)[C@H](Cc1c[nH]cn1)NC(=O)[C@H](Cc1ccccc1)NC(=O)[C@H](CCCCN)NC(=O)[C@H](CC(N)=O)NC(=O)[C@H](Cc1ccccc1)NC(=O)[C@H](CC(=O)O)NC(=O)[C@H](CCC(N)=O)NC(=O)[C@@H](NC(=O)[C@H](Cc1ccc(O)cc1)NC(=O)[C@@H](NC(=O)CNC(=O)[C@H](CC(C)C)NC(=O)[C@H](CCSC)NC(=O)[C@@H]1CSSC[C@H](N)C(=O)NCC(=O)N[C@@H](CC(N)=O)C(=O)N[C@@H](CC(C)C)C(=O)N[C@@H](CO)C(=O)N[C@@H]([C@@H](C)O)C(=O)N1)[C@@H](C)O)[C@@H](C)O)[C@@H](C)O)[C@@H](C)O)C(=O)NCC(=O)N[C@H](C(=O)NCC(=O)N[C@@H](C)C(=O)N1CCC[C@H]1C(N)=O)C(C)C [hCT]	168 ± 12%	–	43 ± 3%	–	82 ± 7%	–	130 ± 8%	–	71 ± 7%	–
CC(C)C[C@H](NC(=O)[C@H](CC(N)=O)NC(=O)[C@H](CC(N)=O)NC(=O)[C@H](CO)NC(=O)[C@H](CO)NC(=O)[C@H](CCCNC(=N)N)NC(=O)[C@@H](NC(=O)[C@H](CC(C)C)NC(=O)[C@H](Cc1ccccc1)NC(=O)[C@H](CC(N)=O)NC(=O)[C@H](C)NC(=O)[C@H](CC(C)C)NC(=O)[C@H](CCCNC(=N)N)NC(=O)[C@H](CCC(N)=O)NC(=O)[C@@H](NC(=O)[C@H](C)NC(=O)[C@@H]1CSSC[C@H](NC(=O)[C@@H](N)CCCCN)C(=O)N[C@@H](CC(N)=O)C(=O)N[C@@H]([C@@H](C)O)C(=O)N[C@@H](C)C(=O)N[C@@H]([C@@H](C)O)C(=O)N1)[C@@H](C)O)C(C)C)C(=O)NCC(=O)N1CCC[C@H]1C(=O)N[C@H](C(=O)N[C@@H](CC(C)C)C(=O)N1CCC[C@H]1C(=O)N1CCC[C@H]1C(=O)N[C@H](C(=O)N[C@@H](CC(N)=O)C(=O)N[C@H](C(=O)NCC(=O)N[C@@H](CO)C(=O)N[C@@H](CC(N)=O)C(=O)N[C@H](C(=O)N[C@@H](Cc1ccc(O)cc1)C(N)=O)[C@@H](C)O)C(C)C)[C@@H](C)O)C(C)C [rAmy]	110 ± 11%	–	41 ± 5%	–	64 ± 6%	–	67 ± 8%	–	–	–
CSCC[C@H](NC(=O)CNC(=O)[C@H](CO)NC(=O)[C@H](Cc1ccccc1)NC(=O)[C@H](CCCNC(=N)N)NC(=O)[C@H](Cc1c[nH]cn1)NC(=O)[C@H](Cc1ccccc1)NC(=O)[C@H](CC(N)=O)NC(=O)[C@H](CC(N)=O)NC(=O)[C@H](CC(C)C)NC(=O)[C@H](CC(N)=O)NC(=O)[C@H](CCCNC(=N)N)NC(=O)[C@H](Cc1c[nH]c2ccccc12)NC(=O)[C@H](Cc1ccc(O)cc1)NC(=O)[C@H](C)NC(=O)[C@H](CO)NC(=O)[C@H](CC(C)C)NC(=O)[C@@H](NC(=O)[C@@H]1CSSC[C@H](N)C(=O)N[C@@H](CO)C(=O)N[C@@H](CC(N)=O)C(=O)N[C@@H](CC(C)C)C(=O)N[C@@H](CO)C(=O)N[C@@H]([C@@H](C)O)C(=O)N1)C(C)C)C(=O)NCC(=O)N[C@@H](Cc1ccccc1)C(=O)NCC(=O)N1CCC[C@H]1C(=O)N[C@@H](CCC(=O)O)C(=O)N[C@H](C(=O)N1CCC[C@H]1C(N)=O)[C@@H](C)O [pCT] (H-CSNLSTCVLSAYWRNLNNFHRFSGMGFGPETP-NH2; disulfide 1-7)	160 ± 10%	2.04 nM	57 ± 6%	4.47 nM	81 ± 6%	1.2 nM	136 ± 11%	3.16 nM	32 ± 4%	4.9 nM
CC(C)C[C@H](NC(=O)[C@H](CCCCN)NC(=O)CNC(=O)[C@H](CC(C)C)NC(=O)[C@@H](NC(=O)[C@@H]1CSSC[C@H](N)C(=O)N[C@@H](CO)C(=O)N[C@@H](CC(N)=O)C(=O)N[C@@H](CC(C)C)C(=O)N[C@@H](CO)C(=O)N[C@@H]([C@@H](C)O)C(=O)N1)C(C)C)C(=O)N[C@@H](CO)C(=O)N[C@@H](CCC(N)=O)C(=O)N[C@@H](CCC(=O)O)C(=O)N[C@@H](CC(C)C)C(=O)N[C@@H](Cc1c[nH]cn1)C(=O)N[C@@H](CCCCN)C(=O)N[C@@H](CC(C)C)C(=O)N[C@@H](CCC(N)=O)C(=O)N[C@H](C(=O)N[C@@H](Cc1ccc(O)cc1)C(=O)N1CCC[C@H]1C(=O)N[C@@H](CCCNC(=N)N)C(=O)N[C@H](C(=O)N[C@@H](CC(N)=O)C(=O)N[C@H](C(=O)NCC(=O)N[C@@H](CO)C(=O)NCC(=O)N[C@H](C(=O)N1CCC[C@H]1C(N)=O)[C@@H](C)O)[C@@H](C)O)[C@@H](C)O)[C@@H](C)O [sCT]	158 ± 12%	–	72 ± 5%	–	96 ± 6%	–	135 ± 12%	–	103 ± 11%	–
